Tests used:
[1] = Apparent permeability in pig LLC-PK1 cells; format: ADME, cell-based, Sus scrofa
[2] = target: T1, Orexin/Hypocretin receptor type 1 (Homo sapiens, UniProt O43613); experiment: Displacement of [125I]Orexin A from recombinant human OX1R expressed in CHO-S cells by radioligand competition binding assay; format: cell-based
T1 sequence (O43613 whole entry): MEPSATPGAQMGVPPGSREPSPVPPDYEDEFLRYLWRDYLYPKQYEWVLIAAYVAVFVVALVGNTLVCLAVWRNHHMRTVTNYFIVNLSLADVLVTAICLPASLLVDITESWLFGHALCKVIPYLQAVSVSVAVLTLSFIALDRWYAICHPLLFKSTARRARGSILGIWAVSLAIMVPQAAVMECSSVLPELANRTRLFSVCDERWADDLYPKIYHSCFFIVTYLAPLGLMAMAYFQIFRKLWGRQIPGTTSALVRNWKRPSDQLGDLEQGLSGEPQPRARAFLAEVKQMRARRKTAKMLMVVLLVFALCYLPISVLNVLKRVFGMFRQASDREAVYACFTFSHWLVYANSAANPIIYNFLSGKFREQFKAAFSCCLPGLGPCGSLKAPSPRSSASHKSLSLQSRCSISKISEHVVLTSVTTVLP

[3] = target: T2, Orexin receptor type 2 (Homo sapiens, UniProt O43614); experiment: Displacement of [125I]Orexin A from recombinant human OX2R expressed in CHO-S cells by radioligand competition binding assay; format: cell-based
T2 sequence (O43614 whole entry): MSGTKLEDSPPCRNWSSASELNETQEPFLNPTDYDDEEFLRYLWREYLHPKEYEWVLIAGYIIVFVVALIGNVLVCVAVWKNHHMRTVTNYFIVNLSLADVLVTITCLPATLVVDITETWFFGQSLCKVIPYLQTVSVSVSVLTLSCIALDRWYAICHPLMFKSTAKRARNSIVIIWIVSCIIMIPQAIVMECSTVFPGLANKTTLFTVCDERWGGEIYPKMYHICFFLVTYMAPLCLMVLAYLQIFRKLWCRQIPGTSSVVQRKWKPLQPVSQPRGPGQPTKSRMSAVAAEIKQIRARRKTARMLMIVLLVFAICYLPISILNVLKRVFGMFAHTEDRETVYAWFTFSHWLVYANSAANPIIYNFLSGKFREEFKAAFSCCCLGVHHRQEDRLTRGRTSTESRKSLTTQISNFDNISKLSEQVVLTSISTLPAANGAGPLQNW

[4] = Biodistribution in male ddY mouse intestine administered intravenously and measured at 10 mins postinjection by gamma counter analysis; format: ADME, organism-based; details: in vivo, iv
[5] = Biodistribution in male ddY mouse heart administered intravenously and measured at 60 mins postinjection by gamma counter analysis; format: ADME, organism-based; details: in vivo, iv, 1 h
[6] = Biodistribution in male ddY mouse stomach administered intravenously and measured per organ at 2 mins postinjection by gamma counter analysis; format: ADME, organism-based; details: in vivo, iv
[7] = Biodistribution in male ddY mouse pancreas administered intravenously and measured at 10 mins postinjection by gamma counter analysis; format: ADME, organism-based; details: in vivo, iv
[8] = Drug uptake in male ddY mouse hypothalamus at 407 kBq, iv measured for 5 to 10 mins by PET/CT imaging analysis; format: ADME, organism-based; details: in vivo, time 5-10 min
[9] = Biodistribution in male ddY mouse liver administered intravenously and measured at 2 mins postinjection by gamma counter analysis; format: ADME, organism-based; details: in vivo, iv
[10] = Biodistribution in male ddY mouse pancreas administered intravenously and measured at 60 mins postinjection by gamma counter analysis; format: ADME, organism-based; details: in vivo, iv, 1 h
[11] = Biodistribution in male ddY mouse heart administered intravenously and measured at 30 mins postinjection by gamma counter analysis; format: ADME, organism-based; details: in vivo, iv, 0.5 h
[12] = Biodistribution in male ddY mouse lung administered intravenously and measured at 10 mins postinjection by gamma counter analysis; format: ADME, organism-based; details: in vivo, iv
[13] = Biodistribution in male ddY mouse intestine administered intravenously and measured at 2 mins postinjection by gamma counter analysis; format: ADME, organism-based; details: in vivo, iv
[14] = Biodistribution in male ddY mouse lung administered intravenously and measured at 30 mins postinjection by gamma counter analysis; format: ADME, organism-based; details: in vivo, iv, 0.5 h
[15] = Biodistribution in male ddY mouse kidney administered intravenously and measured at 60 mins postinjection by gamma counter analysis; format: ADME, organism-based; details: in vivo, iv, 1 h
[16] = Biodistribution in male ddY mouse kidney administered intravenously and measured at 30 mins postinjection by gamma counter analysis; format: ADME, organism-based; details: in vivo, iv, 0.5 h
[17] = Drug uptake in male ddY mouse brain at 41 kBq, iv pretreated with BTF for 10 mins followed by compound administration and measured after 10 mins by gamma counter analysis; format: ADME, organism-based; details: in vivo
[18] = Biodistribution in male ddY mouse brain administered intravenously and measured at 10 mins postinjection by gamma counter analysis; format: ADME, organism-based; details: in vivo, iv
[19] = Biodistribution in male ddY mouse lung administered intravenously and measured at 2 mins postinjection by gamma counter analysis; format: ADME, organism-based; details: in vivo, iv
[20] = Biodistribution in male ddY mouse blood administered intravenously and measured at 10 mins postinjection by gamma counter analysis; format: ADME, organism-based; details: in vivo, iv
[21] = Biodistribution in male ddY mouse liver administered intravenously and measured at 60 mins postinjection by gamma counter analysis; format: ADME, organism-based; details: in vivo, iv, 1 h
[22] = Biodistribution in male ddY mouse blood administered intravenously and measured at 2 mins postinjection by gamma counter analysis; format: ADME, organism-based; details: in vivo, iv
[23] = Biodistribution in male ddY mouse kidney administered intravenously and measured at 10 mins postinjection by gamma counter analysis; format: ADME, organism-based; details: in vivo, iv
[24] = Drug uptake in male ddY mouse locus ceruleus at 407 kBq, iv measured for 5 to 10 mins by PET/CT imaging analysis; format: ADME, organism-based; details: in vivo, time 5-10 min
[25] = Biodistribution in male ddY mouse lung administered intravenously and measured at 60 mins postinjection by gamma counter analysis; format: ADME, organism-based; details: in vivo, iv, 1 h
[26] = Biodistribution in male ddY mouse bone administered intravenously and measured at 10 mins postinjection by gamma counter analysis; format: ADME, organism-based, Bone element; details: in vivo, iv
[27] = Biodistribution in male ddY mouse kidney administered intravenously and measured at 2 mins postinjection by gamma counter analysis; format: ADME, organism-based; details: in vivo, iv
[28] = Biodistribution in male ddY mouse blood administered intravenously and measured at 30 mins postinjection by gamma counter analysis; format: ADME, organism-based; details: in vivo, iv, 0.5 h
[29] = Biodistribution in male ddY mouse pancreas administered intravenously and measured at 2 mins postinjection by gamma counter analysis; format: ADME, organism-based; details: in vivo, iv
[30] = Biodistribution in male ddY mouse spleen administered intravenously and measured at 2 mins postinjection by gamma counter analysis; format: ADME, organism-based; details: in vivo, iv
[31] = Biodistribution in male ddY mouse spleen administered intravenously and measured at 30 mins postinjection by gamma counter analysis; format: ADME, organism-based; details: in vivo, iv, 0.5 h
[32] = Biodistribution in male ddY mouse spleen administered intravenously and measured at 10 mins postinjection by gamma counter analysis; format: ADME, organism-based; details: in vivo, iv
[33] = Biodistribution in male ddY mouse stomach administered intravenously and measured per organ at 30 mins postinjection by gamma counter analysis; format: ADME, organism-based; details: in vivo, iv, 0.5 h
[34] = Drug accumulation in male CD Sprague-Dawley rat hypothalamus assessed as increase in radioactivity at 40.1 kBq/ml incubated for 1 hrs in presence of BTF by autoradiography analysis; format: ADME, tissue-based
[35] = Biodistribution in male ddY mouse pancreas administered intravenously and measured at 30 mins postinjection by gamma counter analysis; format: ADME, organism-based; details: in vivo, iv, 0.5 h
[36] = Biodistribution in male ddY mouse spleen administered intravenously and measured at 60 mins postinjection by gamma counter analysis; format: ADME, organism-based; details: in vivo, iv, 1 h
[37] = Drug accumulation in male CD Sprague-Dawley rat cortex assessed as increase in radioactivity at 40.1 kBq/ml incubated for 1 hrs in presence of BTF by autoradiography analysis; format: ADME, tissue-based
[38] = Biodistribution in male ddY mouse heart administered intravenously and measured at 2 mins postinjection by gamma counter analysis; format: ADME, organism-based; details: in vivo, iv
[39] = Biodistribution in male ddY mouse intestine administered intravenously and measured at 30 mins postinjection by gamma counter analysis; format: ADME, organism-based; details: in vivo, iv, 0.5 h
[40] = Biodistribution in male ddY mouse bone administered intravenously and measured at 60 mins postinjection by gamma counter analysis; format: ADME, organism-based, Bone element; details: in vivo, iv, 1 h
[41] = Biodistribution in male ddY mouse liver administered intravenously and measured at 30 mins postinjection by gamma counter analysis; format: ADME, organism-based; details: in vivo, iv, 0.5 h
[42] = Biodistribution in male ddY mouse stomach administered intravenously and measured per organ at 60 mins postinjection by gamma counter analysis; format: ADME, organism-based; details: in vivo, iv, 1 h
[43] = Biodistribution in male ddY mouse intestine administered intravenously and measured at 60 mins postinjection by gamma counter analysis; format: ADME, organism-based; details: in vivo, iv, 1 h
[44] = Biodistribution in male ddY mouse stomach administered intravenously and measured per organ at 10 mins postinjection by gamma counter analysis; format: ADME, organism-based; details: in vivo, iv
[45] = Biodistribution in male ddY mouse blood administered intravenously and measured at 60 mins postinjection by gamma counter analysis; format: ADME, organism-based; details: in vivo, iv, 1 h
[46] = Biodistribution in male ddY mouse brain administered intravenously and measured at 2 mins postinjection by gamma counter analysis; format: ADME, organism-based; details: in vivo, iv
[47] = Biodistribution in male ddY mouse bone administered intravenously and measured at 2 mins postinjection by gamma counter analysis; format: ADME, organism-based, Bone element; details: in vivo, iv
[48] = Biodistribution in male ddY mouse bone administered intravenously and measured at 30 mins postinjection by gamma counter analysis; format: ADME, organism-based, Bone element; details: in vivo, iv, 0.5 h
[49] = Biodistribution in male ddY mouse heart administered intravenously and measured at 10 mins postinjection by gamma counter analysis; format: ADME, organism-based; details: in vivo, iv
[50] = Biodistribution in male ddY mouse liver administered intravenously and measured at 10 mins postinjection by gamma counter analysis; format: ADME, organism-based; details: in vivo, iv
[51] = Biodistribution in male ddY mouse brain administered intravenously and measured at 30 mins postinjection by gamma counter analysis; format: ADME, organism-based; details: in vivo, iv, 0.5 h
[52] = Drug accumulation in male CD Sprague-Dawley rat amygdala assessed as increase in radioactivity at 40.1 kBq/ml incubated for 1 hrs in presence of BTF by autoradiography analysis; format: ADME, tissue-based
[53] = Biodistribution in male ddY mouse brain administered intravenously and measured at 60 mins postinjection by gamma counter analysis; format: ADME, organism-based; details: in vivo, iv, 1 h

## Cc1ccc(-n2nccn2)c(C(=O)N2CCN(c3nc4cc(Cl)ccc4o3)CC[C@H]2C)c1 [SUVOREXANT]
[1]
  Papp: 34.6 ×10⁻⁶ cm/s

## COc1ccnc(N2CCC3(CCN(Cc4cn([11CH3])c5ccccc45)C(=O)C3)CC2)n1
[2]
  IC50: 253 nM
[3]
  IC50: 1410 nM

## C[C@H]1CN(c2nc3ccccc3s2)CCCN1C(=O)c1cc([18F])ccc1-n1nccn1
[4]
  Drug uptake: 15.7 % ID/g
[5]
  Drug uptake: 0.54 % ID/g
[6]
  Drug uptake: 1.4 %ID
[7]
  Drug uptake: 3.1 % ID/g
[8]
  Drug uptake: Active
[9]
  Drug uptake: 16.2 % ID/g
[10]
  Drug uptake: 0.61 % ID/g
[11]
  Drug uptake: 1.51 % ID/g
[12]
  Drug uptake: 4.13 % ID/g
[13]
  Drug uptake: 4.74 % ID/g
[14]
  Drug uptake: 2.2 % ID/g
[15]
  Drug uptake: 1.84 % ID/g
[16]
  Drug uptake: 3.99 % ID/g
[17]
  Drug uptake: Not_active
[18]
  Drug uptake: 0.82 % ID/g
[19]
  Drug uptake: 8.48 % ID/g
[20]
  Drug uptake: 3.2 % ID/g
[21]
  Drug uptake: 10.8 % ID/g
[22]
  Drug uptake: 6.02 % ID/g
[23]
  Drug uptake: 4.99 % ID/g
[24]
  Drug uptake: Active
[25]
  Drug uptake: 1.17 % ID/g
[26]
  Drug uptake: 1.4 % ID/g
[27]
  Drug uptake: 9.76 % ID/g
[28]
  Drug uptake: 1.74 % ID/g
[29]
  Drug uptake: 7.16 % ID/g
[30]
  Drug uptake: 3.26 % ID/g
[31]
  Drug uptake: 0.66 % ID/g
[32]
  Drug uptake: 1.87 % ID/g
[33]
  Drug uptake: 2.39 %ID
[34]
  Drug uptake: Not_active
[35]
  Drug uptake: 0.92 % ID/g
[36]
  Drug uptake: 0.29 % ID/g
[37]
  Drug uptake: Not_active
[38]
  Drug uptake: 7.48 % ID/g
[39]
  Drug uptake: 28 % ID/g
[40]
  Drug uptake: 1.87 % ID/g
[41]
  Drug uptake: 17 % ID/g
[42]
  Drug uptake: 1.05 %ID
[43]
  Drug uptake: 34.5 % ID/g
[44]
  Drug uptake: 2.16 %ID
[45]
  Drug uptake: 0.64 % ID/g
[46]
  Drug uptake: 2.98 % ID/g
[47]
  Drug uptake: 2.69 % ID/g
[48]
  Drug uptake: 1.77 % ID/g
[49]
  Drug uptake: 3.02 % ID/g
[50]
  Drug uptake: 28.6 % ID/g
[51]
  Drug uptake: 0.17 % ID/g
[52]
  Drug uptake: Not_active
[53]
  Drug uptake: 0.07 % ID/g

From ChEMBL document CHEMBL6120977, “Structure-Affinity-Pharmacokinetics Relationships of Novel 18F-Labeled 1,4-Diazepane Derivatives for Orexin 1 Receptor Imaging” (J Med Chem, 2024)
